Experimental data published in PMC10698726 (Molecular Pharmaceutics, 2023).
Read-outs that look alike come from different tables or passages of the source.

Experiments:
[1] = molecular target: T1, NET (Homo sapiens, UniProt P23975); test: Concentration-dependent MPP+ uptake, NET-overexpressing HEK293 cells; format: in vitro ADME; conditions: this study
T1 construct: expressed in transfected cells; host or cells: HEK293
Procedure: (§1) Koepsell and Gorbulev (University of Würzburg, Germany).
(§2) Prior to inhibition studies, the used model substrates were validated in concentration-dependent uptake experiments if no literature data were available (Table S2 and Figures S2 and S3). Thereby, we ensured that the model substrate concentration used in the subsequent inhibition experiments was sufficiently below the Km value of its uptake kinetics. […] On the day of the experiment, the cells were washed once with prewarmed to 37 °C HBSS (Thermo Fisher Scientific, Darmstadt, Germany) supplemented with 10 mM HEPES and pH adjusted to 7.4 (Sigma-Aldrich)—hereafter termed HBSS+. For concentration-dependent experiments, the cells were incubated with increasing substrate concentrations for 2 min. Uptake was terminated by adding ice-cold HBSS+. Afterward, the cells were washed twice with ice-cold HBSS+, and cell lysis was done with 80% (v/v) acetonitrile (LGC Standards, Wesel, Germany) to which an internal standard for eventual LC–MS/MS analysis had been added. Intracellularly accumulated substrates were then quantified by LC–MS/MS analysis, and calibration was performed with known concentrations of the respective substances. All uptake data were normalized to the number of seeded cells by measuring the total protein content in radioimmunoprecipitation assay buffer-lysed cells in a bicinchoninic acid assay.[29]

[2] = molecular target: T2, DAT (Homo sapiens, UniProt Q01959); test: Concentration-dependent MPP+ uptake, DAT-overexpressing HEK293 cells; format: in vitro ADME; conditions: this study
T2 construct: expressed in transfected cells; host or cells: HEK293
Procedure: as §1, §2

[3] = molecular target: T3, SERT (Homo sapiens, UniProt P31645); test: Concentration-dependent MPP+ uptake, SERT-overexpressing HEK293 cells; format: in vitro ADME; conditions: this study
T3 construct: expressed in transfected cells; host or cells: HEK293
Procedure: as §1, §2

[4] = test system: OCT1; design: method as in PMID 34884800; conditions: cited from earlier work
[5] = test system: OCT2; design: method as in PMID 34884800; conditions: cited from earlier work
[6] = molecular target: T4, OCT2 (Homo sapiens, UniProt O15244); test: Inhibition of model substrate uptake in OCT2-overexpressing HEK293 cells; conditions: for inhibition at 5 min, 20 μM: human, OCT2-overexpressing HEK293 cells, OCT2, 20 μM inhibitor
T4 sequence (O15244 1-555): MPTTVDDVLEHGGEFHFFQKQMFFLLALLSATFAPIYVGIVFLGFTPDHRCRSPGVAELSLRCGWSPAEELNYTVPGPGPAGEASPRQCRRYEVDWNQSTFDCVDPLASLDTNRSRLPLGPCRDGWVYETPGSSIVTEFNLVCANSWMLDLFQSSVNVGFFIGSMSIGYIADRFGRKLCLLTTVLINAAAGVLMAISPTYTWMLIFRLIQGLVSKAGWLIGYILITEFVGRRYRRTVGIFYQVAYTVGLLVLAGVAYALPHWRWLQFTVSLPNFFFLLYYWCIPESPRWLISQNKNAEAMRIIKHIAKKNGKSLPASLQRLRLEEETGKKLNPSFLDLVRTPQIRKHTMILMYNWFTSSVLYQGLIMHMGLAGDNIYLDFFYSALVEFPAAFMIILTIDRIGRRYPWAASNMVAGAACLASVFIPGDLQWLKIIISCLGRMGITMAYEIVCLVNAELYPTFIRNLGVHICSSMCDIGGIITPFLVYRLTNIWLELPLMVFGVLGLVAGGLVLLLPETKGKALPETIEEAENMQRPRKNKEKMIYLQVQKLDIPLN

[7] = molecular target: T5, OCT3 (Homo sapiens, UniProt O75751); test: Inhibition of model substrate uptake in OCT3-overexpressing HEK293 cells; format: cell-based; conditions: 20 μM inhibitor, 5 min
T5 construct: expressed in transfected cells; host or cells: HEK293
T5 sequence (O75751 1-556): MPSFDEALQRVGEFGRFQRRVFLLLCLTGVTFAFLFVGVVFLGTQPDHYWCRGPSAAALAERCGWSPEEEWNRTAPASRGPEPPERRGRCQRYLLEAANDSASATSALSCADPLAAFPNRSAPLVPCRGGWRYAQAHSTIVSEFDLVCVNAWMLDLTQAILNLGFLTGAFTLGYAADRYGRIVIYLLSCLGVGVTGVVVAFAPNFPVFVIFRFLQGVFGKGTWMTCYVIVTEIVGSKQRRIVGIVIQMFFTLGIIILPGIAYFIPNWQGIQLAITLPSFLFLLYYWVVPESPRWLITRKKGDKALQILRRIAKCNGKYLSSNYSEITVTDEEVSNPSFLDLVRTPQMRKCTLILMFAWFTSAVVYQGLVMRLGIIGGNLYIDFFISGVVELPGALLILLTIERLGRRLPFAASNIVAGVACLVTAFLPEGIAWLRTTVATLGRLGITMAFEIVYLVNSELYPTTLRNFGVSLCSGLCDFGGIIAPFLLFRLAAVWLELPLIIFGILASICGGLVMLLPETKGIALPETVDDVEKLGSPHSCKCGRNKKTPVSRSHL
Summary of the method: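 Transporter-overexpressing HEK293 cells were incubated 5 min in HBSS+ with 2 μM model substrate, with or without 20 μM inhibitor or increasing inhibitor concentrations. Uptake was read as ASP^+ fluorescence or by LC–MS/MS, with empty-vector uptake subtracted. IC50 came from a Hill fit of activity versus log concentration.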

[8] = citalopram; multiple doses (40 mg, once daily for 21 d), oral administration; cited from earlier work
[9] = molecular target: T6, OCT1 (Homo sapiens, UniProt O15245); test: Inhibition of model substrate uptake in OCT1-overexpressing HEK293 cells; format: cell-based; design: expressed in transfected cells; host or cells: HEK293; conditions: human, OCT1-overexpressing HEK293 cells, OCT1, 20 μM inhibitor, 5 min
T6 sequence (O15245 1-554): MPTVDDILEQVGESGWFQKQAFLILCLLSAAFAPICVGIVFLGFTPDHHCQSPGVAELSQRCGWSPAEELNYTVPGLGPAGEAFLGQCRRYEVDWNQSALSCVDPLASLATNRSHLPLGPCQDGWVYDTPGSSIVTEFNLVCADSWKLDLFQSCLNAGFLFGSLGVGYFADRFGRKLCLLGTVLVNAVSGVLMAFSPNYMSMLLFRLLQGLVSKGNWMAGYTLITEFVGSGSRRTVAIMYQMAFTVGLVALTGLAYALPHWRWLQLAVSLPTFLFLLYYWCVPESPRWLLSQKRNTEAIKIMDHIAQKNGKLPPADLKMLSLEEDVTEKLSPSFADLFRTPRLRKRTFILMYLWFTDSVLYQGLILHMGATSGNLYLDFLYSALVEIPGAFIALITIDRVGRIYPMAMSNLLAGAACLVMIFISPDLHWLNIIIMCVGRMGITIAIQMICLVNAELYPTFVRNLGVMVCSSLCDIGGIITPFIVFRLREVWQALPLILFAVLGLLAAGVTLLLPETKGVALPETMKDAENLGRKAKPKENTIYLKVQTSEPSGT
Procedure: as §1
Fluorescence quantification was performed in technical duplicates.

[10] = substrate: CCC(CO)NCCNC(CC)CO; test: cells, lysate or membranes named; conditions: other: OCT1, 2 min uptake, this study
[11] = pH 7.4, probe (S,S)-ethambutol (2 μM), (S,S)-Ethambutol inhibition [%], 2 μM (S,S)-ethambutol

T3 sequence (P31645 whole entry): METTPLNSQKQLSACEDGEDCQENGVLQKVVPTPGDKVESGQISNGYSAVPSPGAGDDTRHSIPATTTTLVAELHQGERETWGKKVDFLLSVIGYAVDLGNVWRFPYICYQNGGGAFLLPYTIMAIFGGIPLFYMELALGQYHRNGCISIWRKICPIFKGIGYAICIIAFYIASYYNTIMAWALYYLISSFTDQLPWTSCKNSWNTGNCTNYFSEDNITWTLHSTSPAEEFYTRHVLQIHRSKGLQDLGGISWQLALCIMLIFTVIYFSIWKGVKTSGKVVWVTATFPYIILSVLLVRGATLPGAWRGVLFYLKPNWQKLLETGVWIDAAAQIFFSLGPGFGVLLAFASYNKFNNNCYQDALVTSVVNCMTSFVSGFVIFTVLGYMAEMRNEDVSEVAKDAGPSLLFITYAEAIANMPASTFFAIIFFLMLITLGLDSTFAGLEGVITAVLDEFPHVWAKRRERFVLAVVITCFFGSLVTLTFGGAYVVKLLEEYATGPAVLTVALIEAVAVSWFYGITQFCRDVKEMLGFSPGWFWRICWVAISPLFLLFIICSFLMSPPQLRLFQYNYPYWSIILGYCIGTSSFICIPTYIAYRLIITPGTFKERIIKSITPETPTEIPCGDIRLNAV
T2 sequence (Q01959 whole entry): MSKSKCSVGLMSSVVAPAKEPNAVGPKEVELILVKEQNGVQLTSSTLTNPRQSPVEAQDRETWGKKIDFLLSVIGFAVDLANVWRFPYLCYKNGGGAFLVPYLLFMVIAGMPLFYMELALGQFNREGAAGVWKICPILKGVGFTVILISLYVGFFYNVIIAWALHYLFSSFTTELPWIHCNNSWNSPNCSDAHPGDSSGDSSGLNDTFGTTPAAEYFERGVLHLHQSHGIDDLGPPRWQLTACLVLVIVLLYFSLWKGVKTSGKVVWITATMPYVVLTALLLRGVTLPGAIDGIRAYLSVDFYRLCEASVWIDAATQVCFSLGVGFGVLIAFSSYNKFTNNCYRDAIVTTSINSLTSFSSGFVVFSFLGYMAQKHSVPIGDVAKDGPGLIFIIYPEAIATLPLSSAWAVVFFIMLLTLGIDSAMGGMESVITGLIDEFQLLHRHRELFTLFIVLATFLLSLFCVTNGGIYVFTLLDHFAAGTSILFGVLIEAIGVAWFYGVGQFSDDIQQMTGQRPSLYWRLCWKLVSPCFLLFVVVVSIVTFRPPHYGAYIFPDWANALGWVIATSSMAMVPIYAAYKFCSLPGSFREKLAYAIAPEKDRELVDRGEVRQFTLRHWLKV
T1 sequence (P23975 whole entry): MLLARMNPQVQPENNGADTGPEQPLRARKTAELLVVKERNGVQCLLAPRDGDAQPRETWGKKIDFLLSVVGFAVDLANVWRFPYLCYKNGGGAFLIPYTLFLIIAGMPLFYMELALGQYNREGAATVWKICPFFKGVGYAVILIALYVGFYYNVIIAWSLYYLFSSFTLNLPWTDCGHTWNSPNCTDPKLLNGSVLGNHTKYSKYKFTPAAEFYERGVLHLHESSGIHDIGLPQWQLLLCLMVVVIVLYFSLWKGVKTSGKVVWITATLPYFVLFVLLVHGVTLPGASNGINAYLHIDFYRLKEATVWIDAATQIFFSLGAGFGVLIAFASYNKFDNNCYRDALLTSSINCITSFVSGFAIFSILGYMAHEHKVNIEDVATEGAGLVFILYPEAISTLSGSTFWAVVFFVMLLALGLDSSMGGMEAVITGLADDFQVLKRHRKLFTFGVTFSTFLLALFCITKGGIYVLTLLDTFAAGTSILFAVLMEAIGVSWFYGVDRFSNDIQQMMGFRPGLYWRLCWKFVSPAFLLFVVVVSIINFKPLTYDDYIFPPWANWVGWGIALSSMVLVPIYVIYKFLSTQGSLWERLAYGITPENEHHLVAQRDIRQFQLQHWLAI

**Q.** For `C[n+]1ccc(-c2ccccc2)cc1` [MPP+, 1-methyl-4-phenylpyridinium], which “vmax ± SEM [pmol × mg Protein−1 × min−1]” value [1] is on record?
**A.** The value was 381 pmol × mg Protein−1 × min−1.

**Q.** What about the Km ([1]; read-out: Km ± SEM) of the same molecule?
**A.** The Km was 2.5 µM.

**Q.** What about the “Clint ± SEM” value ([1]; vmax over Km) of the same molecule?
**A.** The value was 152.

**Q.** What about the “vmax ± SEM [pmol × mg Protein−1 × min−1]” value [2] of the same molecule?
**A.** The value was 2107 pmol × mg Protein−1 × min−1.

**Q.** What about the Km ([2]; read-out: Km ± SEM) of the same molecule?
**A.** The Km was 20.1 µM.

**Q.** What about the “Clint ± SEM” value ([2]; vmax over Km) of the same molecule?
**A.** Its value is 104.

**Q.** And the “vmax ± SEM [pmol × mg Protein−1 × min−1]” value [3]?
**A.** Its value is 627 pmol × mg Protein−1 × min−1.

**Q.** And the Km ([3]; read-out: Km ± SEM)?
**A.** Its Km is 21.1 µM.

**Q.** And the “Clint ± SEM” value ([3]; vmax over Km)?
**A.** The value was 29.7.

**Q.** For `CCCC(C(=O)c1ccccc1)N1CCCC1` (stereo not drawn) [α-pyrrolidinovalerophenone], which “difference in the inhibition of OCT1 between enantiomers” value [4] is on record?
**A.** The value was “twofold difference”.

**Q.** And the “difference in the inhibition of OCT2 between enantiomers” value [5]?
**A.** The value was “no difference”.

**Q.** For `CN(C)CCC[C@@]1(c2ccc(F)cc2)OCc2cc(C#N)ccc21` [(S)-Citalopram], which IC50 ([6]; IC50 [μM], OCT2, Table 1) is on record?
**A.** The IC50 was 10.7 µM.

**Q.** What about the inhibition at 5 min, 20 μM [6, 11] of the same molecule?
**A.** The inhibition at 5 min, 20 μM was -9.7%.

**Q.** What about the inhibition at 5 min, 20 μM ([6]; pH 7.4, probe ASP+ (2 μM), ASP+ inhibition [%], 2 μM ASP+) of the same molecule?
**A.** The inhibition at 5 min, 20 μM was 68.6%.

**Q.** What about the inhibition at 5 min, 20 μM ([6]; pH 7.4, probe N-ethyllidocaine (2 μM), N-Ethyllidocaine inhibition [%], 2 μM N-ethyllidocaine) of the same molecule?
**A.** The inhibition at 5 min, 20 μM was 26.5%.

**Q.** And the inhibition at 20 µM ([7]; HEK293, 5 min, read-out: (S)-Zolmitriptan inhibition [%], OCT3, 2 μM (S)-zolmitriptan)?
**A.** Its inhibition at 20 µM is 19.2%.

**Q.** And the inhibition at 20 µM ([7]; HEK293, 5 min, read-out: (S,S)-Ethambutol inhibition [%], OCT3, 2 μM (S,S)-ethambutol)?
**A.** Its inhibition at 20 µM is 31.7%.

**Q.** What about the inhibition at 20 µM ([7]; HEK293, OCT3, 2 μM ASP+, read-out: ASP+ inhibition [%]) of the same molecule?
**A.** Its inhibition at 20 µM is 10.9%.

**Q.** What about the “Imax” value [8] of the same molecule?
**A.** Its value is 0.154 µM.

**Q.** And the inhibition at 5 min, 20 μM [9, 11]?
**A.** The inhibition at 5 min, 20 μM was 80.1%.

**Q.** And the inhibition at 5 min, 20 μM ([9]; pH 7.4, probe ASP+ (2 μM), 2 μM ASP+, mean of three experiments, read-out: ASP+ inhibition [%])?
**A.** Its inhibition at 5 min, 20 μM is 37.2%.

**Q.** What about the inhibition at 5 min, 20 μM ([9]; pH 7.4, probe sumatriptan (2 μM), 2 μM sumatriptan, read-out: Sumatriptan inhibition [%]) of the same molecule?
**A.** Its inhibition at 5 min, 20 μM is 77.6%.

B1: OCT1 (Homo sapiens) (protein)
chain: T6 sequence (O15245 1-554)
**Q.** For B1, which Km [10] is on record?
**A.** Its Km is 167 µM.

**Q.** What about the Vmax [10] of the same molecule?
**A.** The Vmax was 0.00235 µmol/min/mg.
